# Results from patent publication US12102648B2, “Orally-bioavailable nucleoside analogs” (priority 2021, dated 2024).
# Test system: not listed separately
# Assay: in vitro
# Type: in vitro ADME
# Settings: human, Caco-2
# Outline: (§1)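 Caco-2 monolayers cultured 19 days on inserts (TEER >600 […]); bidirectional A-to-B and B-to-A transport at 37° C over 90 min, samples quantified by LC/MS/MS. Papp, efflux ratio and recovery calculated; ER >2 flags potential efflux substrates.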
Structure (SMILES),Papp A→B at 90 min,Papp B→A at 90 min,efflux ratio at 90 min
"CC(C)(C)C(=O)OCOC(=O)Nc1ncnn2c([C@]3(C#N)O[C@H](CO)[C@@H](OC(=O)CC4CCCCC4)[C@H]3O)ccc12 [Compound 370, (((7-((2R,3R,4S,5R)-2-cyano-4-(2-cyclohexylacetoxy)-3-hydroxy-5-(hydroxymethyl)tetrahydrofuran-2-yl)pyrrolo[2,1-f][1,2,4]triazin-4-yl)carbamoyl)oxy)methyl pivalate]",0.3 ×10⁻⁶ cm/s,0.23 ×10⁻⁶ cm/s,0.77
"CC(C)(C)[C@H](N)C(=O)OC[C@H]1O[C@@](C#N)(c2ccc3c(N)ncnn23)[C@H](O)[C@@H]1OC(=O)CC1CCCCC1 [Compound 371, ((2R,3S,4R,5R)-5-(4-aminopyrrolo[2,1-f][1,2,4]triazin-7-yl)-5-cyano-3-(2-cyclohexylacetoxy)-4-hydroxytetrahydrofuran-2-yl)methyl (S)-2-amino-3,3-dimethylbutanoate]",15 ×10⁻⁶ cm/s,21 ×10⁻⁶ cm/s,1.3
"N#C[C@@]1(c2ccc3c(N)ncnn23)O[C@H](COC(=O)[C@@H](N)Cc2ccccc2)[C@@H](OC(=O)CC2CCCCC2)[C@H]1O [Compound 372, ((2R,3S,4R,5R)-5-(4-aminopyrrolo[2,1-f][1,2,4]triazin-7-yl)-5-cyano-3-(2-cyclohexylacetoxy)-4-hydroxytetrahydrofuran-2-yl)methyl L-phenylalaninate]",0.73 ×10⁻⁶ cm/s,0.83 ×10⁻⁶ cm/s,1.1
"CC(=O)Nc1ncnn2c([C@]3(C#N)O[C@H](COC(=O)[C@@H](N)C(C)(C)C)[C@@H](OC(=O)CC4CCCCC4)[C@H]3O)ccc12 [Compound 373, ((2R,3S,4R,5R)-5-(4-acetamidopyrrolo[2,1-f][1,2,4]triazin-7-yl)-5-cyano-3-(2-cyclohexylacetoxy)-4-hydroxytetrahydrofuran-2-yl)methyl (S)-2-amino-3,3-dimethylbutanoate]",24 ×10⁻⁶ cm/s,29 ×10⁻⁶ cm/s,1.2
"CC(C)(C)C(=O)OCOC(=O)Nc1ncnn2c([C@]3(C#N)O[C@H](COC(=O)[C@@H](N)Cc4ccccc4)[C@@H](OC(=O)CC4CCCCC4)[C@H]3O)ccc12 [Compound 374, (((7-((2R,3R,4S,5R)-5-(((L-phenylalanyl)oxy)methyl)-2-cyano-4-(2-cyclohexylacetoxy)-3-hydroxytetrahydrofuran-2-yl)pyrrolo[2,1-f][1,2,4]triazin-4-yl)carbamoyl)oxy)methyl pivalate]",0.004 ×10⁻⁶ cm/s,0.08 ×10⁻⁶ cm/s,19
"CC(C)(C)C(=O)OCOC(=O)Nc1ncnn2c([C@]3(C#N)O[C@H](COC(=O)C(C)(C)C4CCCCC4)[C@@H](O)[C@H]3O)ccc12 [Compound 375, ((2R,3S,4R,5R)-5-cyano-3,4-dihydroxy-5-(4-((((pivaloyloxy)methoxy)carbonyl)amino)pyrrolo[2,1-f][1,2,4]triazin-7-yl)tetrahydrofuran-2-yl)methyl 2-cyclohexyl-2-methylpropanoate]",0.02 ×10⁻⁶ cm/s,0.02 ×10⁻⁶ cm/s,1.1
"CCCCOC(=O)Nc1ncnn2c([C@]3(C#N)O[C@H](COC(=O)C(C)(C)C4CCCCC4)[C@@H](O)[C@H]3O)ccc12 [Compound 379, ((2R,3S,4R,5R)-5-(4-((butoxycarbonyl)amino)pyrrolo[2,1-f][1,2,4]triazin-7-yl)-5-cyano-3,4-dihydroxytetrahydrofuran-2-yl)methyl 2-cyclohexyl-2-methylpropanoate]",1.6 ×10⁻⁶ cm/s,2.5 ×10⁻⁶ cm/s,1.6
"Cc1oc(=O)oc1COC(=O)Nc1ncnn2c([C@]3(C#N)O[C@H](COC(=O)CC4CCCCC4)[C@@H](OC(=O)[C@@H](N)C(C)C)[C@H]3O)ccc12 [Compound 385, (2R,3S,4R,5R)-5-cyano-2-((2-cyclohexylacetoxy)methyl)-4-hydroxy-5-(4-((((5-methyl-2-oxo-1,3-dioxol-4-yl)methoxy)carbonyl)amino)pyrrolo[2,1-f][1,2,4]triazin-7-yl)tetrahydrofuran-3-yl L-valinate]",< 1 ×10⁻⁶ cm/s,< 1 ×10⁻⁶ cm/s,
CC(C)(C)[C@@H](N)C(=O)OC[C@H]1O[C@@](C#N)(c2ccc3c(N)ncnn23)[C@H](O)[C@@H]1OC(=O)CC1CCCCC1 [Compound 392],5.6 ×10⁻⁶ cm/s,16.4 ×10⁻⁶ cm/s,3
"CC(C)(C)C(=O)OCOC(=O)Nc1ncnn2c([C@]3(C#N)O[C@H](COC(=O)[C@@H](N)C(C)(C)C)[C@@H](O)[C@H]3O)ccc12 [Compound 395, ((2R,3S,4R,5R)-5-cyano-3,4-dihydroxy-5-(4-((((pivaloyloxy)methoxy)carbonyl)amino)pyrrolo[2,1-f][1,2,4]triazin-7-yl)tetrahydrofuran-2-yl)methyl (S)-2-amino-3,3-dimethylbutanoate]",0.01 ×10⁻⁶ cm/s,0.24 ×10⁻⁶ cm/s,19.2
"CC(C)(C)[C@H](N)C(=O)O[C@H]1[C@@H](O)[C@](C#N)(c2ccc3c(N)ncnn23)O[C@@H]1COC(=O)CC1CCCCC1 [Compound 397, (2R,3S,4R,5R)-5-(4-aminopyrrolo[2,1-f][1,2,4]triazin-7-yl)-5-cyano-2-((2-cyclohexylacetoxy)methyl)-4-hydroxytetrahydrofuran-3-yl (S)-2-amino-3,3-dimethylbutanoate]",2.8 ×10⁻⁶ cm/s,7.3 ×10⁻⁶ cm/s,2.6
"CCCC(=O)Nc1ncnn2c([C@]3(C#N)O[C@H](COC(=O)CC4CCCCC4)[C@@H](OCOC(=O)C(C)(C)C)[C@H]3O)ccc12 [Compound 409, (((2R,3S,4R,5R)-5-(4-butyramidopyrrolo[2,1-f][1,2,4]triazin-7-yl)-5-cyano-2-((2-cyclohexylacetoxy)methyl)-4-hydroxytetrahydrofuran-3-yl)oxy)methyl pivalate]",0.46 ×10⁻⁶ cm/s,0.1 ×10⁻⁶ cm/s,0.22
"CC(C)(C)[C@H](N)C(=O)OC[C@H]1O[C@@](C#N)(c2ccc3c(N)ncnn23)[C@H](O)[C@@H]1O [Compound 410, ((2R,3S,4R,5R)-5-(4-aminopyrrolo[2,1-f][1,2,4]triazin-7-yl)-5-cyano-3,4-dihydroxytetrahydrofuran-2-yl)methyl (S)-2-amino-3,3-dimethylbutanoate]",0.47 ×10⁻⁶ cm/s,1.49 ×10⁻⁶ cm/s,3.2
"CC(C)(C)[C@@H](N)C(=O)OC[C@H]1O[C@@](C#N)(c2ccc3c(N)ncnn23)[C@H](O)[C@@H]1O [Compound 411, ((2R,3S,4R,5R)-5-(4-aminopyrrolo[2,1-f][1,2,4]triazin-7-yl)-5-cyano-3,4-dihydroxytetrahydrofuran-2-yl)methyl (R)-2-amino-3,3-dimethylbutanoate]",0.12 ×10⁻⁶ cm/s,2.5 ×10⁻⁶ cm/s,20.7
"CC(=O)O[C@H]1[C@@H](OC(C)=O)[C@](C#N)(c2ccc3c(N)ncnn23)O[C@@H]1COC(=O)C(C)(C)C1CCCCC1 [Compound 412, (2R,3R,4R,5R)-2-(4-aminopyrrolo[2,1-f][1,2,4]triazin-7-yl)-2-cyano-5-(((2-cyclohexyl-2-methylpropanoyl)oxy)methyl)tetrahydrofuran-3,4-diyl diacetate]",5.1 ×10⁻⁶ cm/s,0.9 ×10⁻⁶ cm/s,0.2
"CC(=O)N[C@H](C(=O)OC[C@H]1O[C@@](C#N)(c2ccc3c(N)ncnn23)[C@H](O)[C@@H]1OC(=O)CC1CCCCC1)C(C)(C)C [Compound 413, ((2R,3S,4R,5R)-5-(4-aminopyrrolo[2,1-f][1,2,4]triazin-7-yl)-5-cyano-3-(2-cyclohexylacetoxy)-4-hydroxytetrahydrofuran-2-yl)methyl (S)-2-acetamido-3,3-dimethylbutanoate]",4.3 ×10⁻⁶ cm/s,13.8 ×10⁻⁶ cm/s,3.2

# Same assay, conditions: human; Caco-2 monolayer, apical to basolateral, 90-minute incubation; read-out: Papp, A-B
row,Structure (SMILES),Papp A→B at 90 min
1,"Cc1oc(=O)oc1COC(=O)Nc1ncnn2c([C@]3(C#N)O[C@H](COC(=O)Cc4ccccc4)[C@@H](OC(=O)[C@@H](N)C(C)C)[C@H]3O)ccc12 [Compound 383, (2R,3S,4R,5R)-5-cyano-4-hydroxy-5-(4-((((5-methyl-2-oxo-1,3-dioxol-4-yl)methoxy)carbonyl)amino)pyrrolo[2,1-f][1,2,4]triazin-7-yl)-2-((2-phenylacetoxy)methyl)tetrahydrofuran-3-yl L-valinate]",< 1 ×10⁻⁶ cm/s
2,"CC(C)C(=O)Nc1ncnn2c([C@]3(C#N)O[C@H](COC(=O)Cc4ccccc4)[C@@H](OC(=O)[C@@H](N)C(C)(C)C)[C@H]3O)ccc12 [Compound 401, (2R,3S,4R,5R)-5-cyano-4-hydroxy-5-(4-isobutyramidopyrrolo[2,1-f][1,2,4]triazin-7-yl)-2-((2-phenylacetoxy)methyl)tetrahydrofuran-3-yl (S)-2-amino-3,3-dimethylbutanoate]",3.8 ×10⁻⁶ cm/s

# Same assay, conditions: human; Caco-2 monolayer, basolateral to apical, 90-minute incubation; read-out: Papp, B-A
row,Structure (SMILES),Papp B→A at 90 min
1,"Cc1oc(=O)oc1COC(=O)Nc1ncnn2c([C@]3(C#N)O[C@H](COC(=O)Cc4ccccc4)[C@@H](OC(=O)[C@@H](N)C(C)C)[C@H]3O)ccc12 [Compound 383, (2R,3S,4R,5R)-5-cyano-4-hydroxy-5-(4-((((5-methyl-2-oxo-1,3-dioxol-4-yl)methoxy)carbonyl)amino)pyrrolo[2,1-f][1,2,4]triazin-7-yl)-2-((2-phenylacetoxy)methyl)tetrahydrofuran-3-yl L-valinate]",< 1 ×10⁻⁶ cm/s
2,"CC(C)C(=O)Nc1ncnn2c([C@]3(C#N)O[C@H](COC(=O)Cc4ccccc4)[C@@H](OC(=O)[C@@H](N)C(C)(C)C)[C@H]3O)ccc12 [Compound 401, (2R,3S,4R,5R)-5-cyano-4-hydroxy-5-(4-isobutyramidopyrrolo[2,1-f][1,2,4]triazin-7-yl)-2-((2-phenylacetoxy)methyl)tetrahydrofuran-3-yl (S)-2-amino-3,3-dimethylbutanoate]",15.3 ×10⁻⁶ cm/s

# Same assay, conditions: human; Caco-2 monolayer; ER>2 indicates potential efflux transporter substrate; read-out: ER (efflux ratio)
row,Structure (SMILES),efflux ratio at 90 min
1,"CC(C)C(=O)Nc1ncnn2c([C@]3(C#N)O[C@H](COC(=O)Cc4ccccc4)[C@@H](OC(=O)[C@@H](N)C(C)(C)C)[C@H]3O)ccc12 [Compound 401, (2R,3S,4R,5R)-5-cyano-4-hydroxy-5-(4-isobutyramidopyrrolo[2,1-f][1,2,4]triazin-7-yl)-2-((2-phenylacetoxy)methyl)tetrahydrofuran-3-yl (S)-2-amino-3,3-dimethylbutanoate]",4.1

# Test system: Caco-2 cell monolayer
# Assay: in vitro
# Type: in vitro ADME
# Settings: human, Caco-2, 90 min
# Outline: as §1
Structure (SMILES),"Papp, A-B","Papp, B-A"
"N#C[C@@]1(c2ccc3c(NC(=O)[C@@H](N)Cc4ccc(F)cc4)ncnn23)O[C@H](CO)[C@@H](O)[C@H]1O [Compound 84, (S)-2-amino-N-(7-((2R,3R,4S,5R)-2-cyano-3,4-dihydroxy-5-(hydroxymethyl)tetrahydrofuran-2-yl)pyrrolo[2,1-f][1,2,4]triazin-4-yl)-3-(4-fluorophenyl)propenamide]",0 ×10⁻⁶ cm/s,0 ×10⁻⁶ cm/s

# Test system: not given
# Assay: not given
# Settings: rats; cited from earlier work
row,Structure (SMILES),% F (oral bioavailability)
1,N#C[C@@]1(c2ccc3c(N)ncnn23)O[C@H](CO)[C@@H](O)[C@H]1O [GS-441524],4.8%

# Test system: not given
# Assay: not given
# Settings: in vivo, iv; cited from earlier work
row,Structure (SMILES),T1/2 (hydrolysis by esterases)
1,"CCC(CC)COC(=O)[C@H](C)N[P@](=O)(OC[C@H]1O[C@@](C#N)(c2ccc3c(N)ncnn23)[C@H](O)[C@@H]1O)Oc1ccccc1 [remdesivir, Remdesivir]",about 1 hr

# Same assay, conditions: plasma, following IV administration; cited from earlier work
row,Structure (SMILES),T½ in plasma
1,N#C[C@@]1(c2ccc3c(N)ncnn23)O[C@H](CO)[C@@H](O)[C@H]1O [GS-441524],about 24.5 hr
